Data taken from US5594032A, “Amelioration of human erectile dysfunction by treatment with iNOS, inducers of iNOS or iNOS cDNA” (priority 1994, dated 1997).

Tests used:
[1] = system: rat penis smooth muscle cells (RPSMC); experiment: Nitrite accumulation in medium of rat penis smooth muscle cell cultures (Greiss reagent); type: cell-based
Experimental: Primary cultures of RPSMC were initiated from small pieces of penile tissue excised from 3 months old Sprague Dawley rats, utilizing Dulbecco's modified Eagle medium (DMEM) with 20% fetal calf serum, at 37° C. in the presence of 5% CO2. Cells grown from the explants were then transferred to medium with 10% serum, and at the 4th to 10th passage (1:3 splits) they were utilized for the experiments, unless otherwise indicated. Alternatively, cells from the 4-8th passage stored under liquid nitrogen were used to reinitiate the cultures, and used for incubations on the following 2-4 passages. These cultures are considered to consist mainly of smooth muscle cells from the penis based on morphological and cytoimmunochemical criteria.
All experiments were conducted at 90-100% cell confluence on "Primaria" cultureware, usually 24-well plates, adding or not the inducers indicated in each experiment. When not specifically stated, the standard binary induction mix consisted of bacterial lipopolysaccharide (LPS) (10 ug/ml) and recombinant murine […] (INF-θ) (250 U/ml). Other substances to be tested were added as indicated to the serum-containing medium, and the incubation proceeded for the times indicated. The medium was always collected and stored for an indirect measurement of NO production based on the determination of its conversion into nitrites. The procedure was based on the application of the Greiss reagent, using 250 ul of the medium mixed with an equal volume of reagent. Each experimental condition was carried out in triplicate.

Male Fischer 344 rats = experiment: Erectile response (maximal intracavernosal pressure) to electrical field stimulation of the cavernosal nerve; type: in vivo, rat; conditions: for inhibition of the erectile response: sub-optimal dose
Experimental: Male Fischer 344 rats from three age groups designated "adult" (5-month old), "old" (20 month old), and "very old" (28-32 month old) rats, were anesthetized with an intraperitoneal injection of sodium […] (pentobarbital) at 50 mg/kg. The definition of these age groups in terms of relative aging corresponds to conventional designations for the Fisher 344 strain of rats (maximal life span approximately 34-36 months; optimum breeding activity 2.5-8 months). The adult and very old rats were retired breeders whenever possible. Animals were maintained under controlled lighting and were treated according to NIH regulations. The number of animals in each group for each individual experiment is indicated in the corresponding figure.
A transversal suprapubic skin incision (5 mmm) was done to expose the penis angle and its proximal portion. The right corpora cavernosa was then cannulated with a 27-gauge needle attached to a vinyl tubing (Bolab/bb317-85 Arizona) which was connected with an ALZET^R osmotic pump (Alza Corporation, Palo Alto, Calif.). Each pump (100 or 200 ul reservoir volume, as indicated) contained a mix of E. coli lipopolysaccharide (LPS) at 1 ug/ml, recombinant rat […] (IFN-γ) at 2,500 U/ml, recombinant human tumor necrosis factor-(TNF-α) at 2,500 U/ml, and recombinant human interleukin-1β (IL-1β) at 50 ng/ml.
The needle and the tubing were fixed to the penis peripheral tissues by Mersilene* 6-0 suture and the osmotic pump was placed subcutaneously on the rat abdomen. […] The incision was closed by layer using Dexon* Plus 4-0 suture and the success of the operation was checked all throughout the experiment by observation of a normal recovery and urinary activity. These criteria were completed by verifying the absence of peripheral hematomas or inflammation when the pump was removed. Each pump delivered the inducer mix by osmotic pressure through the catheter directly into the corpora cavernosa, either at 1 ul/hr during 3 days (pump 1003D) or at 0.5 ul/hr during 14 days (pump 2002).
At the completion of each treatment rats were anesthetized as in Example 1 and the erectile response was measured by a modification of a published procedure. Briefly, the cavernosal nerve was surgically exposed and stimulated with a square pulse stimulator connected to a platinum bipolar electrode positioned on the nerve. Through a needle inserted into the cavernosa, the intracavernosal pressure was recorded with a pressure transducer connected to a recorder that was calibrated with a manometer in order to express the response in mm of mercury. The animals were reinjected every 45 min with 35 mg/kg of ketamine for the whole duration of the experiment (about 2-3 hours).
Each rat was submitted to the following sequential treatments done in duplicate: a) electrical field stimulation (EFS) at a frequency of 15 Hz for pulses of 30 sec, separated for 5 min intervals, for the voltage response curve, at […], 2.5, 5 and 10 volts, in this order; b) EFS at 10 volts with the nitric oxide synthase (NOS) inhibitor N -nitro-L-arginine methy ester (L-NAME) at 2 mg/kg, at a single dose per animal, recording 30 min. after injection. In some animals, the systemic blood pressure was measured at the beginning of the experiment, by intrafemoral cannulation and recording as above. Means and standard deviations were determined for the intracavernosal pressure values, and the statistical significance was obtained by the paired Student's t test.

penile NOS = experiment: NOS activity in penile cytosol, (3-H) L-arginine to (3-H) citrulline conversion; type: biochemical, rat; conditions: cytosol of inducer-treated rats
Experimental: Six adult rats were implanted with 100 ul pumps for 3 days, and then the pumps were replaced by similar ones with fresh solution as indicated in Example 2. Three animals had the pumps containing the inducer mix and three had saline as a control. At the end of the experiment the animals were anesthetized as indicated above and the penis (including the bulb), liver, and in some animals the cerebellum were surgically removed. The penile head and skin were excised and the organs were stored under liquid nitrogen.
NOS activity was determined from tissue homogenates from two treated and two control rats, not subjected to EFS in order to avoid the interference with residual L-NAME from the in vivo experiments and EFS-induced changes in NOS activity. […] After eliminating the residual (3-H)L-arginine through the resin, (3-H) citrulline was counted in the trichloroacetic acid ether-extracted supernatant. All values were corrected by the radioactivity eluted in time zero incubations.

cNOS, iNOS = conditions: cited from earlier work
[2] = supplemented with 1 or 10 ug/ml LPS, 48 hr incubation

In the case of `COC(=O)[C@@H](N)CCCNC(=N)N[N+](=O)[O-]` [L-NAME, N-nitro-L-arginine methyl ester], the inhibition at 2000 µM ([1]; Rattus norvegicus, 2 mM, RPSMC treated with standard induction mix, read-out: inhibition of nitrite release) is reported as ≤ 85%, the “fraction of maximal intracavernosal pressure remaining after L-NAME” value (Male Fischer 344 rats; adult rats treated with inducers, L-NAME 2 mg/kg, EFS 10 volts) is reported as 39% and the “fraction of maximal intracavernosal pressure remaining after L-NAME” value (Male Fischer 344 rats; adult rats without inducer treatment (separate study)) is reported as 62%. For the same molecule, the “fraction of maximal intracavernosal pressure remaining after L-NAME” value (Male Fischer 344 rats; old rats treated with inducers, L-NAME 2 mg/kg, EFS 10 volts) was 18%, the “fraction of maximal intracavernosal pressure remaining after L-NAME” value (Male Fischer 344 rats; old rats without inducer treatment (separate study)) was 30% and the “inhibition of the erectile response” value (Male Fischer 344 rats; non-respondent rats after 14 days inducer treatment) was “normal”. The “inhibition of the erectile response” value (Male Fischer 344 rats; respondent animals after 14 days inducer treatment, three age groups) was “over 95%”, the “fraction of maximal intracavernosal pressure remaining after L-NAME” value (Male Fischer 344 rats; very old rats treated with inducers, L-NAME 2 mg/kg, EFS 10 volts) was 28% and the “fraction of maximal intracavernosal pressure remaining after L-NAME” value (Male Fischer 344 rats; very old rats without inducer treatment (separate study)) was 23%. The “inhibition of NOS activity in penile cytosol” value (penile NOS; 2 mM) was 60-70%.

With “IL-1β: recombinant human interleukin-1 β” the “effectiveness compared with 500 U/ml INF-θ” value ([1]; 5 ng/ml with 10 ug/ml LPS, 48 hr) was “slightly more effective”.

With TNF-α the “effect on nitrite production” value ([1]; up to 500 u/ml, presence or absence of LPS, 48 hr) was “did not have any effect”.

In the case of `N=C(N)NN` [aminoguanidine], the “effect on NOS activity in penile cytosol” value (penile NOS; 0.3 mM) is given as “not affected” and the “isoform preference of NOS inhibition” value (cNOS, iNOS; specificity varies with the cell type) is given as “preferential inhibitor for iNOS”.

In the case of `N=C(NCCC[C@H](N)C(=O)O)N[N+](=O)[O-]` [L-nitroarginine], the “potency as inhibitor of cNOS relative to iNOS” value (cNOS, iNOS) is listed as 1000 fold.

B1: INF-θ: recombinant murine interferon-θ (in vitro); recombinant rat interferon-θ (IFN-γ) in vivo (protein, UniProt P01580 23-155, looked up)
Interferon gamma: HGTVIESLESLNNYFNSSGIDVEEKSLFLDIWRNWQKDGDMKILQSQIISFYLRLFEVLKDNQAISNNISVIESHLITTFFSNSKAKKDAFMSIAKFEVNNPQVQRQAFNELIRVVHQLLPESSLRKRKRSRC
modifications: rat IFN-gamma used in vivo
With B1 the “nitrites in culture medium, maximum” value ([1]; 50 to 500 U/ml, absence of LPS, 48 hr incubation) was ≤ 45 µM, the “induction relative to the basal level” value [1, 2] was ~20 fold and the “nitrites in culture medium” value [1, 2] was “up to 120 uM”.
